We go through 17 molecules from ChEMBL document CHEMBL5113508, “Targeting Human CD22/Siglec-2 with Dimeric Sialosides as Novel Oligosaccharide Mimetics” (J Med Chem, 2022).

Test [1] deals with B-cell receptor CD22 (Homo sapiens) (UniProt P20273). The test is described as follows: Inhibition of to hFc tagged CD22 (unknown origin) assessed as relative inhibitory potency incubated for 4 hrs by ELISA relative to 1,4-bis-(2-Aza-1-oxo-8-(sodium(5-acetamido-3,5,9-trideoxy-9-(4-phenylbenzamido)-D-glycero-alpha-D-galacto-non-2-ulopyranosyloxyonate))-5-thia-octyl)benzene.
Chain of B-cell receptor CD22 (Homo sapiens) (P20273 whole entry): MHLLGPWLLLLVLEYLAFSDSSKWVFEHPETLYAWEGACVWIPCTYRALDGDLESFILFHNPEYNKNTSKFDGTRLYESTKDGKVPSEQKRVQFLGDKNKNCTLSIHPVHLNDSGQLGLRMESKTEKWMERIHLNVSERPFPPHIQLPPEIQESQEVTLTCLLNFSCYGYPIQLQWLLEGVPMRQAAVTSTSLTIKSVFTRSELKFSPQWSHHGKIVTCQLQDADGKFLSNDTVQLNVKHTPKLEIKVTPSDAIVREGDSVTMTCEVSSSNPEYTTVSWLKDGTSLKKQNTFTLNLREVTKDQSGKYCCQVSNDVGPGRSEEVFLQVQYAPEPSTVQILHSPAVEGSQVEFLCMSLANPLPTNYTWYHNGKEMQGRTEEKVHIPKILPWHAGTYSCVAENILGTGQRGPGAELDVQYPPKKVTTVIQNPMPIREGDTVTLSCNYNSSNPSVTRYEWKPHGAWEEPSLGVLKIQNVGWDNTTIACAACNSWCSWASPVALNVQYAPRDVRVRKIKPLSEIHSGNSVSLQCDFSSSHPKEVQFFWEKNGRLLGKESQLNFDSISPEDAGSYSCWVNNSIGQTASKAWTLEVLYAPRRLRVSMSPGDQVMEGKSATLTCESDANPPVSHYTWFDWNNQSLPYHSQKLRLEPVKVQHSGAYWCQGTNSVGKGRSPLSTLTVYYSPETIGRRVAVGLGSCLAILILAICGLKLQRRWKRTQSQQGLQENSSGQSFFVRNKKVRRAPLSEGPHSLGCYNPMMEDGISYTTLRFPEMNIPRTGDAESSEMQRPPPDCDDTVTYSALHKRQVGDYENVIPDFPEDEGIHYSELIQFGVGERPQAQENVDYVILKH
Test [2] shares this target. Put plainly: Inhibition of CD22 in human Daudi cells assessed as relative inhibitory potency in presence of biotinylated dimeric 2-(78-biotinoylamino-1,4,7,10,13,16-hexaoxa-octadecyl)-1,4-bis(2-aza-l-oxo-8-(sodium(5-acetamido-3,5,9-trideoxy-9-(4-phenylbenzamido)-D-glycero-a-D-galacto-non-2-ulopyranosyloxyonate))-5-thia-octyl) benzene preincubated for 15 mins followed by probe addition incubated for 20 mins by flow cytometric analysis relative to 1,4-bis-(2-Aza-1-oxo-8-(sodium(5-acetamido-3,5,9-trideoxy-9-(4-phenylbenzamido)-D-glycero-alpha-D-galacto-non-2-ulopyranosyloxyonate))-5-thia-octyl)benzene. It is filed as cell-based. To be noted: time 35.0 min.

The structures appear in SMILES notation. Bounds are passed on as bounds.

With `CC(=O)N[C@H]1[C@H]([C@H](O)[C@H](O)CNC(=O)c2ccc(-c3ccccc3Cl)cc2)O[C@@](OCCCSCCNC(=O)c2ccc(C(=O)NCCSCCCO[C@]3(C(=O)O)C[C@H](O)[C@@H](NC(C)=O)[C@H]([C@H](O)[C@H](O)CNC(=O)c4ccc(-c5ccccc5Cl)cc4)O3)cc2)(C(=O)O)C[C@@H]1O`, the fold change (FC) came out at 5.3 in test [1] and 1.3 in test [2].

`CC(=O)N[C@H]1[C@H]([C@H](O)[C@H](O)CNC(=O)c2ccc(-c3ccsc3)cc2)O[C@@](OCCCSCCNC(=O)c2ccc(C(=O)NCCSCCCO[C@]3(C(=O)O)C[C@H](O)[C@@H](NC(C)=O)[C@H]([C@H](O)[C@H](O)CNC(=O)c4ccc(-c5ccsc5)cc4)O3)cc2)(C(=O)O)C[C@@H]1O`: the fold change (FC) in test [1] was 1.6; in test [2] it was 0.71. As for `CC(=O)N[C@H]1[C@H]([C@H](O)[C@H](O)CNC(=O)c2ccc(-c3ccccc3)cc2)O[C@@](OCCCSCCNC(=O)c2ccc(C(=O)NCCSCCCO[C@]3(C(=O)O)C[C@H](NS(=O)(=O)O)[C@@H](NC(C)=O)[C@H]([C@H](O)[C@H](O)CNC(=O)c4ccc(-c5ccccc5)cc4)O3)c(OCCOCCOCCOCCOCCOCCN)c2)(C(=O)O)C[C@@H]1NS(=O)(=O)O`, in test [2], the fold change (FC) amounted to 34.

As to `CC(=O)N[C@H]1[C@H]([C@H](O)[C@H](O)CNC(=O)c2ccc(-c3ccccc3)cc2)O[C@@](OCCCSCCNC(=O)c2ccc(C(=O)NCCSCCCO[C@]3(C(=O)O)C[C@H](O)[C@@H](NC(C)=O)[C@H]([C@H](O)[C@H](O)CNC(=O)c4ccc(-c5ccccc5)cc4)O3)c(Br)c2)(C(=O)O)C[C@@H]1O`, the results for the fold change (FC) in test [1] and in test [2] were 0.77 and 5.9, respectively. Consider `CC(=O)N[C@H]1[C@H]([C@H](O)[C@H](O)CNC(=O)c2ccc(-c3ccccc3)cc2)O[C@@](OCCCSCCNC(=O)c2ccc(C(=O)NCCSCCCO[C@]3(C(=O)O)C[C@H](O)[C@@H](NC(C)=O)[C@H]([C@H](O)[C@H](O)CNC(=O)c4ccc(-c5ccccc5)cc4)O3)c(OCCOCCOCCOCCOCCOCCN)c2)(C(=O)O)C[C@@H]1O`, for which the fold change (FC) in test [2] is 0.14. With `CC(=O)N[C@H]1[C@H]([C@H](O)[C@H](O)CO)O[C@@](OCCCSCCNC(=O)c2ccc(C(=O)NCCSCCCO[C@]3(C(=O)O)C[C@H](O)[C@@H](NC(C)=O)[C@H]([C@H](O)[C@H](O)CO)O3)cc2)(C(=O)O)C[C@@H]1O`, the fold change (FC) turned out to be 0.01 in test [1] and 0.00034 in test [2]. Turning to `CC(=O)N[C@H]1[C@H]([C@H](O)[C@H](O)CNC(=O)c2ccc(-c3ccccc3)cc2)O[C@@](OCCCSCCNC(=O)c2ccc(C(=O)NCCSCCCO[C@]3(C(=O)O)C[C@H](O)[C@@H](NC(C)=O)[C@H]([C@H](O)[C@H](O)CNC(=O)c4ccc(-c5cccs5)cc4)O3)cc2)(C(=O)O)C[C@@H]1O`, the fold change (FC) was 1.2 in test [1] and 3.7 in test [2].

For `CC(=O)N[C@H]1[C@H]([C@H](O)[C@H](O)CNC(=O)c2ccc(-c3ccccc3)cc2)O[C@@](OCc2cn(CCNC(=O)c3ccc(C(=O)NCCn4cc(CO[C@]5(C(=O)O)C[C@H](O)[C@@H](NC(C)=O)[C@H]([C@H](O)[C@H](O)CNC(=O)c6ccc(-c7ccccc7)cc6)O5)nn4)cc3)nn2)(C(=O)O)C[C@@H]1O`, the fold change (FC) was 0.18 in test [1] and 0.0028 in test [2]. Consider `CC(=O)N[C@H]1[C@H]([C@H](O)[C@H](O)CNC(=O)c2ccc(-c3ccccc3)cc2)O[C@](C(=O)O)(n2cc(CCCCNC(=O)c3ccc(C(=O)NCCCCc4cn([C@]5(C(=O)O)C[C@H](O)[C@@H](NC(C)=O)[C@H]([C@H](O)[C@H](O)CNC(=O)c6ccc(-c7ccccc7)cc6)O5)nn4)cc3)nn2)C[C@@H]1O`, for which the fold change (FC) in test [1] is 0.86; in test [2], less than 0.0001. For `CC(=O)N[C@H]1[C@H]([C@H](O)[C@H](O)CNC(=O)c2ccc(-c3ccccc3)cc2)O[C@@](OCCCSCCNCc2ccc(CNCCSCCCO[C@]3(C(=O)O)C[C@H](O)[C@@H](NC(C)=O)[C@H]([C@H](O)[C@H](O)CNC(=O)c4ccc(-c5ccccc5)cc4)O3)cc2)(C(=O)O)C[C@@H]1O` the same measures were 0.1 and 0.011. Taken in the same sequence, the figures for `CC(=O)N[C@H]1[C@H]([C@H](O)[C@H](O)CNC(=O)c2ccc(-c3ccccc3)cc2)O[C@@](OCCCSCCNC(=O)c2ccc(-c3ccc(C(=O)NCCSCCCO[C@]4(C(=O)O)C[C@H](O)[C@@H](NC(C)=O)[C@H]([C@H](O)[C@H](O)CNC(=O)c5ccc(-c6ccccc6)cc5)O4)cc3)cc2)(C(=O)O)C[C@@H]1O` were 0.17 and 0.01. Taken in the same sequence, the figures for `CC(=O)N[C@H]1[C@H]([C@H](O)[C@H](O)CNC(=O)c2ccc(-c3ccccc3)cc2)O[C@@](OCCCSCCNC(=O)c2cccc(C(=O)NCCSCCCO[C@]3(C(=O)O)C[C@H](O)[C@@H](NC(C)=O)[C@H]([C@H](O)[C@H](O)CNC(=O)c4ccc(-c5ccccc5)cc4)O3)c2)(C(=O)O)C[C@@H]1O` were 0.79 and 0.11.

Regarding `CC(=O)N[C@H]1[C@H]([C@H](O)[C@H](O)CNC(=O)c2ccc(-c3cccs3)s2)O[C@@](OCCCSCCNC(=O)c2ccc(C(=O)NCCSCCCO[C@]3(C(=O)O)C[C@H](O)[C@@H](NC(C)=O)[C@H]([C@H](O)[C@H](O)CNC(=O)c4ccc(-c5cccs5)s4)O3)cc2)(C(=O)O)C[C@@H]1O`, the values for the fold change (FC) in test [1] and in test [2] were 4.5 and 0.07, respectively. Taken in the same sequence, the figures for `CC(=O)N[C@H]1[C@H]([C@H](O)[C@H](O)CNC(=O)c2ccc(-c3ccccc3)cc2)O[C@@](OCCCSCCNC(=O)c2ccc(C(=O)NCCSCCCO[C@]3(C(=O)O)C[C@H](NS(=O)(=O)O)[C@@H](NC(C)=O)[C@H]([C@H](O)[C@H](O)CNC(=O)c4ccc(-c5ccccc5)cc4)O3)cc2)(C(=O)O)C[C@@H]1NS(=O)(=O)O` were 65 and 138. On to `CC(=O)N[C@H]1[C@H]([C@H](O)[C@H](O)CNC(=O)c2ccc(-c3ccccc3)cc2)O[C@@](OCCCSCCC(=O)Nc2ccc(NC(=O)CCSCCCO[C@]3(C(=O)O)C[C@H](O)[C@@H](NC(C)=O)[C@H]([C@H](O)[C@H](O)CNC(=O)c4ccc(-c5ccccc5)cc4)O3)cc2)(C(=O)O)C[C@@H]1O`, for which the fold change (FC) was 0.1 in test [1] and 1.5 in test [2]. With `CC(=O)N[C@H]1[C@H]([C@H](O)[C@H](O)CNC(=O)c2ccc(C3CCCCC3)cc2)O[C@@](OCCCSCCNC(=O)c2ccc(C(=O)NCCSCCCO[C@]3(C(=O)O)C[C@H](O)[C@@H](NC(C)=O)[C@H]([C@H](O)[C@H](O)CNC(=O)c4ccc(C5CCCCC5)cc4)O3)cc2)(C(=O)O)C[C@@H]1O`, the fold change (FC) in test [1] came out at 0.1; in test [2], 0.008. For `CC(=O)N[C@H]1[C@H]([C@H](O)[C@H](O)CNC(=O)c2ccc(-c3ccccc3)cc2)O[C@@](OCCC[S+]([O-])CCNC(=O)c2ccc(C(=O)NCC[S+]([O-])CCCO[C@]3(C(=O)O)C[C@H](O)[C@@H](NC(C)=O)[C@H]([C@H](O)[C@H](O)CNC(=O)c4ccc(-c5ccccc5)cc4)O3)cc2)(C(=O)O)C[C@@H]1O` (some centres not stated) the same measures were 0.49 and 0.013.
